Values joined by “and” are separate entries in the source; they are usually repeats but may differ in a detail not shown here. Identical values can stand only once.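 48-hour exposure; five concentrations; linearly interpolated endpoints. GI50 is the concentration that inhibits growth by half. TGI marks complete inhibition of growth.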
Legend:
Experiment in all cases: NCI-60 cell line screen, 48 h
[1] = tested on: HOP-62 NSCLC
[2] = tested on: SNB-75 CNS
[3] = tested on: HL-60(TB) leukemia
[4] = tested on: MDA-MB-231 breast
[5] = tested on: NCI-H23 lung
[6] = tested on: KM12 colon
[7] = tested on: UACC-62 melanoma
[8] = tested on: U251 CNS
[9] = tested on: EKVX NSCLC
[10] = tested on: LOX IMVI melanoma
[11] = tested on: OVCAR-4 ovarian
[12] = tested on: SF-268 CNS
[13] = tested on: SK-MEL-28 melanoma
[14] = tested on: OVCAR-8 ovarian
[15] = tested on: MALME-3M melanoma
[16] = tested on: SF-539 CNS
[17] = tested on: A549 NSCLC
[18] = tested on: HOP-92 NSCLC
[19] = tested on: HCT-116 colon
[20] = tested on: HCC-2998 colon
[21] = tested on: CAKI-1 renal
[22] = tested on: MOLT-4 leukemia
[23] = tested on: TK-10 renal
[24] = tested on: OVCAR-3 ovarian
[25] = tested on: SF-295 CNS
[26] = tested on: 786-0 renal
[27] = tested on: MDA-N
[28] = tested on: SNB-19 CNS
[29] = tested on: PC-3 prostate
[30] = tested on: BT-549 breast
[31] = tested on: CCRF-CEM leukemia
[32] = tested on: A498 renal
[33] = tested on: SK-MEL-5 melanoma
[34] = tested on: HS 578T breast
[35] = tested on: RPMI-8226 leukemia
[36] = tested on: SK-MEL-2 melanoma
[37] = tested on: SW-620 colon
[38] = tested on: M14 melanoma
[39] = tested on: HT29 colon
[40] = tested on: T-47D breast
[41] = tested on: MDA-MB-435
[42] = tested on: K-562 leukemia
[43] = tested on: UO-31 renal
[44] = tested on: IGROV1 ovarian
[45] = tested on: NCI/ADR-RES ovarian
[46] = tested on: SN12C renal
[47] = tested on: UACC-257 melanoma
[48] = tested on: NCI-H226 lung
[49] = tested on: RXF 393 renal
[50] = tested on: OVCAR-5 ovarian
[51] = tested on: ACHN renal
[52] = tested on: HCT-15 colon
[53] = tested on: COLO 205 colon
[54] = tested on: MCF7 breast
[55] = tested on: NCI-H460 lung
[56] = tested on: SR leukemia
[57] = tested on: DU-145 prostate
[58] = tested on: SK-OV-3 ovarian
[59] = tested on: NCI-H522 lung

With `Cc1noc(C)c1-n1nc2ccc3nonc3c2n1` the TGI [1] was 59.7 µM, the TGI [2] was > 82.4 µM and the TGI [3] was > 100 µM. For the same compound, the TGI [4] was > 100 µM, the TGI [5] was > 100 µM and the TGI [6] was > 100 µM. For the same compound, the TGI [7] was > 100 µM, the TGI [8] was > 75.4 µM and the TGI [9] was > 92.4 µM. For the same compound, the TGI [10] was > 100 µM, the TGI [11] was > 100 µM and the TGI [12] was > 100 µM. The TGI [13] was > 100 µM, the TGI [14] was > 100 µM and the TGI [15] was > 100 µM. For the same compound, the TGI [16] was > 71.4 µM, the TGI [17] was > 100 µM and the TGI [18] was > 86.4 µM. The TGI [19] was > 100 µM, the TGI [20] was > 100 µM and the TGI [21] was > 100 µM. For the same compound, the TGI [22] was > 100 µM, the TGI [23] was > 82 µM and the TGI [24] was > 100 µM. The TGI [25] was 98.6 µM, the TGI [26] was > 93 µM and the TGI [27] was > 100 µM. For the same compound, the TGI [28] was > 76.4 µM, the TGI [29] was > 100 µM and the TGI [30] was > 100 µM. For the same compound, the TGI [31] was > 100 µM, the TGI [32] was 66.8 µM and the TGI [33] was > 100 µM. For the same compound, the TGI [34] was > 88.1 µM, the TGI [35] was > 100 µM and the TGI [36] was > 100 µM. The TGI [37] was > 100 µM, the TGI [38] was > 100 µM and the TGI [39] was > 100 µM. The TGI [40] was > 100 µM, the TGI [41] was > 100 µM and the TGI [42] was > 100 µM. The TGI [43] was > 100 µM, the TGI [44] was > 100 µM and the TGI [45] was > 100 µM. The TGI [46] was > 100 µM, the TGI [47] was > 100 µM and the TGI [48] was > 100 µM. The TGI [49] was 51.5 µM, the TGI [50] was > 100 µM and the TGI [51] was > 100 µM. The TGI [52] was > 100 µM, the TGI [53] was > 100 µM and the TGI [54] was > 100 µM. For the same compound, the TGI [55] was > 100 µM, the TGI [56] was > 100 µM and the TGI [57] was > 100 µM. The TGI [58] was > 73.4 µM and the TGI [59] was > 100 µM.

`Nc1ccccc1NC(=O)c1ccc(CNC(=O)OCc2cccnc2)cc1` was tested, and the TGI [1] was > 90 µM, the TGI [2] was > 100 µM and the GI50 [3] was 0.847 µM. The TGI [3] was 26.6 µM and > 22.5 µM, the GI50 [4] was 13.8 µM and the TGI [4] was > 100 µM and 25.6 µM. For the same compound, the GI50 [5] was 3.23 µM, the TGI [5] was > 89.4 µM and 14.9 µM and the GI50 [6] was 4.31 µM. The TGI [6] was > 100 µM, the GI50 [7] was 0.278 µM and the TGI [7] was 1.77 µM and 4.81 µM. For the same compound, the GI50 [8] was 2.03 µM, the TGI [8] was > 39.5 µM and 5.74 µM and the GI50 [9] was 3.26 µM. For the same compound, the TGI [9] was > 100 µM, the GI50 [10] was 1.06 µM and the TGI [10] was 8.67 µM and 5.94 µM. The GI50 [11] was 1.31 µM, the TGI [11] was > 100 µM and the GI50 [12] was 1.86 µM. The TGI [12] was 25 µM and > 74.7 µM, the GI50 [13] was 0.663 µM and the TGI [13] was 5.94 µM and > 45.4 µM. For the same compound, the TGI [14] was > 100 µM, the GI50 [15] was 0.577 µM and 0.267 µM and the TGI [15] was > 23.6 µM and 2.39 µM. The GI50 [16] was 3.19 µM, the TGI [16] was 78.7 µM and > 52.1 µM and the TGI [17] was > 100 µM. The GI50 [18] was 0.0382 µM, the GI50 [19] was 0.798 µM and the TGI [19] was > 92 µM and 11.6 µM. The TGI [20] was 5.44 µM and 9.79 µM, the GI50 [21] was 1.17 µM and the TGI [21] was 14.1 µM and > 59.5 µM. The GI50 [22] was 1.93 µM, the TGI [22] was > 85 µM and the GI50 [23] was 0.289 µM. For the same compound, the TGI [23] was 38.8 µM and > 100 µM, the GI50 [24] was 1.74 µM and the TGI [24] was 11.5 µM and 14.8 µM. For the same compound, the GI50 [25] was 2.57 µM, the TGI [25] was > 39.8 µM and 16.6 µM and the GI50 [26] was 4.96 µM. The TGI [26] was > 90.9 µM, the TGI [27] was 12.4 µM and the GI50 [28] was 6.33 µM. The TGI [28] was > 100 µM and 75.2 µM, the TGI [29] was > 100 µM and the GI50 [30] was 4.14 µM. For the same compound, the TGI [30] was > 100 µM, the GI50 [31] was 1.94 µM and the TGI [31] was > 100 µM and 21.7 µM. For the same compound, the GI50 [32] was 0.361 µM, the TGI [32] was 2.98 µM and 4.14 µM and the GI50 [33] was 0.743 µM. For the same compound, the TGI [33] was 2.31 µM and 2.3 µM, the GI50 [34] was 2.33 µM and the TGI [34] was > 100 µM. For the same compound, the GI50 [35] was 0.895 µM, the TGI [35] was > 29.5 µM and 4.54 µM and the GI50 [36] was 1.1 µM. For the same compound, the TGI [36] was 15 µM and 3.2 µM, the GI50 [37] was 1.3 µM and the TGI [37] was 34.5 µM and > 100 µM. The GI50 [38] was 2.35 µM, the TGI [38] was > 100 µM and 15.5 µM and the GI50 [39] was 1.04 µM. For the same compound, the GI50 [40] was 0.462 µM, the TGI [40] was > 100 µM and the GI50 [41] was 0.956 µM. The TGI [41] was 14.8 µM and > 33.1 µM, the GI50 [42] was 0.505 µM and the TGI [42] was > 100 µM. The GI50 [43] was 1.17 µM, the TGI [43] was > 100 µM and 20.3 µM and the GI50 [44] was 3.95 µM. For the same compound, the TGI [44] was > 61.6 µM and 36.2 µM, the GI50 [45] was 2.38 µM and the TGI [45] was > 67.4 µM. The GI50 [46] was 9.39 µM, the TGI [46] was > 100 µM and the TGI [47] was > 29 µM. The GI50 [48] was 0.604 µM, the TGI [48] was 16.9 µM and 5.73 µM and the GI50 [49] was 1.49 µM. For the same compound, the TGI [49] was 6.31 µM and 27.6 µM, the GI50 [50] was 1.05 µM and the GI50 [51] was 2.34 µM. The TGI [51] was > 77.7 µM and 25.7 µM, the GI50 [52] was 8.47 µM and the TGI [52] was > 100 µM. The GI50 [53] was 2.01 µM, the TGI [53] was 8.37 µM and 3.03 µM and the GI50 [54] was 0.637 µM. The TGI [54] was > 100 µM, the GI50 [55] was 0.83 µM and the TGI [55] was > 100 µM. For the same compound, the GI50 [56] was 0.533 µM, the TGI [56] was > 100 µM and the GI50 [57] was 2.26 µM. The TGI [57] was > 100 µM, the GI50 [58] was 2.75 µM and the TGI [58] was > 100 µM. For the same compound, the GI50 [59] was 0.698 µM and the TGI [59] was 7.41 µM and > 27.9 µM.
